In patent US7794994B2 (Kemeta, LLC, priority 2001, dated 2010):

Legend:
[1] = system: 3-enzyme system (S-ADH coupled to lactate dehydrogenase and pyruvate oxidase); assay: S-ADH coupled to H2O2 formation electrochemical assay (3-enzyme system), interference compounds; format: biochemical, X. autotrophicus Py2; conditions: for interference with the acetone measurement (current response): Acetone plus 10 mM ethanol, 50 μM isopropanol or 50 μM isobutanol, data not shown
Protocol: Secondary alcohol dehydrogenase coupled to H2O2 formation electrochemical assay. […] Before measurements the electrode surface was polished using Al2O3 paste for 1 min. and then rinsed with deionized water, sonicated for 1 min. and rinsed with water again. The polished Pt electrode was then pretreated electrochemically by applying 10 cycles of 100 mV/s from +200 mV to +900 mV. All potentials were referenced versus a Ag/AgCl electrode (BAS part number MF-2078). Assays contained potassium phosphate (100 mM, pH 7.2), purified S-ADH (1 U/mL), NADH (201 μM), lactate (100 mM), lactate dehydrogenase (5 U/mL), pyruvate oxidase (4 U/mL), flavin adenine dinucleotide (0.01 mM), cocarboxylase (0.2 mM), in a total volume of 0.5 mL. […] After a 2 min. incubation period, the potential was stepped from open circuit to 350 mV.

[2] = target: T1, acetone carboxylase coupled to β-hydroxybutyrate dehydrogenase (Xanthobacter versatilis, UniProt Q8RM03+Q8RM04); assay: Acetone carboxylase coupled to NADH oxidation spectrophotometric assay; format: biochemical, X. autotrophicus strain Py2; conditions: for activity as substrate and inhibition of acetone carboxylation activity: alternative compounds in coupled enzyme system
T1 construct: host or cells: X. autotrophicus strain Py2 (native organism; enzyme obtained from Prof; S. A. Ensign / purified as previously published)
T1 sequence (Q8RM03 1-776): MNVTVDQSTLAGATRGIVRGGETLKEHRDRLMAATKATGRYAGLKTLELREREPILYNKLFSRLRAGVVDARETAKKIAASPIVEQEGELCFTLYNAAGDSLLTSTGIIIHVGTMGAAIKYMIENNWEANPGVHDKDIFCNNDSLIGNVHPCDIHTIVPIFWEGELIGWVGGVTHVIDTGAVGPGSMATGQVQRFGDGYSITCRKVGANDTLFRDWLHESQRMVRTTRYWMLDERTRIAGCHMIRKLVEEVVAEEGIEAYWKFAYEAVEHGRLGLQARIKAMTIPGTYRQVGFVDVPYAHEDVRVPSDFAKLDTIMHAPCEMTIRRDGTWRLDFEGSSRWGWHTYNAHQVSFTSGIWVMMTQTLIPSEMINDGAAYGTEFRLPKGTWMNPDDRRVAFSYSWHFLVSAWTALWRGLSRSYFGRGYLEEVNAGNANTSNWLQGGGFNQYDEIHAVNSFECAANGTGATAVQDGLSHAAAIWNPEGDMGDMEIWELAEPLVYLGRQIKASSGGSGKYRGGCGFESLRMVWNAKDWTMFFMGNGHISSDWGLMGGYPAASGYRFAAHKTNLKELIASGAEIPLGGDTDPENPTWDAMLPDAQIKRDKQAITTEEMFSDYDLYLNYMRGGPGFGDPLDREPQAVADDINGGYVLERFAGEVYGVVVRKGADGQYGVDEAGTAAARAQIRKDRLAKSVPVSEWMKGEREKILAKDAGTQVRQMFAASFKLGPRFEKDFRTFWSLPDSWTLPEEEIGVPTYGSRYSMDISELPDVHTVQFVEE
T1 sequence (Q8RM04 1-717): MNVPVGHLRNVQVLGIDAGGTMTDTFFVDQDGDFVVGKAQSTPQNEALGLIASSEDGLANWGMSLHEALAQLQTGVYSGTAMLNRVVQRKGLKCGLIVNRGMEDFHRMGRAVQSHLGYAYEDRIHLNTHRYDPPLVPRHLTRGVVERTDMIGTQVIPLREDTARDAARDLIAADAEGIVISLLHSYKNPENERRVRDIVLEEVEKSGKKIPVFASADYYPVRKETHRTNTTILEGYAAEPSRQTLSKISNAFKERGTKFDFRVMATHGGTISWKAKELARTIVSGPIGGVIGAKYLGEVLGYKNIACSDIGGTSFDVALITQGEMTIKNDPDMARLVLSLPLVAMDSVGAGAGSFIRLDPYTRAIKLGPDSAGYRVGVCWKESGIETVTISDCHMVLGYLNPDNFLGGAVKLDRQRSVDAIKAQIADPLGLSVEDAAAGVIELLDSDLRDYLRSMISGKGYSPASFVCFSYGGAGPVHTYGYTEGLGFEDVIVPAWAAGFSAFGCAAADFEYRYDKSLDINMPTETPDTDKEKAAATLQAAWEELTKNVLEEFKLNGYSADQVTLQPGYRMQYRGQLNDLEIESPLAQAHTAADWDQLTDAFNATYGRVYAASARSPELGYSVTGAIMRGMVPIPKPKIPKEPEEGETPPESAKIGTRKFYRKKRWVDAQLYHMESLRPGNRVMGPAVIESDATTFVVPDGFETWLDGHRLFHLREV
T1 sequence (Q8RM02 2-168 partner limits assumed): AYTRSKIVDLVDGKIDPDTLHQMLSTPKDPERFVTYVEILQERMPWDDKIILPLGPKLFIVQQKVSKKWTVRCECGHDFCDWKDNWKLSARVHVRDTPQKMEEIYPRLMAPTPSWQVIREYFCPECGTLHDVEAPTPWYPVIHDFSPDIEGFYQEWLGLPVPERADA
Protocol: Assays were performed in 2 mL (1 cm path length) quartz cuvettes that had been modified by fusing a serum bottle-style quartz top (7×13 mm at mouth), allowing the cuvettes to be sealed with a red rubber serum stopper. […] The addition of […] (3 U) and NADH (0.2 mM) allowed acetoacetate formation to be coupled to the oxidation of NADH. […] The reaction was monitored by measuring the decrease in absorbance at 340 nm (∈340 of 6.22 mM^−·cm^−1 for NADH) over time in an Agilent Technologies (Palo Alto, Calif.) model 8453 UV-Visible Spectroscopy System containing a thermostat-controlled cell holder at 30° C.

[3] = system: S-ADH from M. vaccae JOB-5; assay: S-ADH spectrophotometric assay, propane-grown M. vaccae JOB-5; format: biochemical, Mycobacterium vaccae strain JOB-5; conditions: for Relative S-ADH Activity (%) JOB 5, ketone reduction: ketone reduction rates, pH 6.2, 2.5 mM substrate, 0.2 mM NADH, acetone = 100; for Relative S-ADH Activity (%) JOB 5, alcohol oxidation: alcohol oxidation rates, pH 7.6, 2.5 mM substrate, 0.2 mM NAD+, 2-propanol = 100, NA = no activity detected
Protocol: Assays were performed in 2 mL quartz cuvettes and contained NAD(H) (0.2 mM), potassium phosphate buffer (25 mM), and a source of enzyme (cell-free extracts, column fractions, or purified enzyme) in a total reaction volume of 1 mL at pH 6.2 ([…]) at 30° C. Assays were pre-incubated for 1.5 min. at 30° C. with all assay components except substrate. Assays were initiated by addition of substrate (2.5 mM) and monitored over time by measuring the change in absorbance at 340 nm (∈340 of 6.22 mM^−1·cm^−1 for NADH).

[4] = system: S-ADH purified from M vaccae strain JOB-5; conditions: M vaccae enzyme; alcohols oxidized, acetone reduced; cited from earlier work

Row | Structure (SMILES) | interference with the acetone measurement (current response) [1] | Relative S-ADH Activity (%) JOB 5, ketone reduction [3] [%] | Relative S-ADH Activity (%) JOB 5, alcohol oxidation [3] [%] | activity as substrate and inhibition of acetone carboxylation activity [2] | Km [4] [µM] | other results
1 | CCO [Ethanol] | do not interfere | – | – | – | – | effect on rate of NADH oxidation (inhibition) ([2]; addition of ethanol (10 mM)): no decrease in the rate was observed
2 | CCC(C)=O [2-Butanone] | – | 213 | – | – | – | current response relative to acetone ([1]; 50 μM butanone): equivalent to 50 μM acetone; rate relative to acetone using the coupled enzyme system [2]: 3 to 4%
3 | CC(C)O [2-Propanol] | do not interfere | – | 100 | not active nor did they inhibit acetone carboxylation activity | 50 | –
4 | CCC(C)O (stereo not shown) [2-Butanol] | – | – | 130 | not active nor did they inhibit acetone carboxylation activity | – | –
5 | CCCO [1-Propanol] | – | – | 9 | not active nor did they inhibit acetone carboxylation activity | 8100 | –
6 | CC(C)=O [Acetone, acetone] | – | 100 | – | – | 300 | –
